{"source": "patent US20050250748A1", "about": "“Combination therapy of angiotensin converting enzyme inhibitor and eplerenone for treatment of cardiovascular disease” (G. D. Searle & Co., priority 1999, published 2005)", "key": {"[1]": {"test_system": "patients with myocardial infarction", "conditions": "patients with myocardial infarction receiving zofenopril; cited from earlier work"}, "[2]": {"test_system": "patients with clinical evidence of HF at any time after an AMI", "conditions": "cited from earlier work; for risk reduction in all cause mortality compared to placebo: p=0.002"}, "[3]": {"test_system": "patients with impaired ejection fraction post AMI", "conditions": "cited from earlier work"}, "[4]": {"assay": "solubility of eplerenone in crystallization solvents", "type": "physicochemical", "conditions": "organic solvent or mixture; room temperature; organic solvents used for crystallization"}, "[5]": {"test_system": "patients with stable NYHA Class II-IV heart failure", "assay": "Biological Evaluation I: randomized, double-blind, placebo and active drug-controlled 12-week trial of eplerenone with ACE inhibitor and loop diuretic", "conditions": "for urinary aldosterone excretion, increase from baseline: 12 week visit; for plasma renin activity (PRA): drug therapy with ACE inhibitor and loop diuretic; for testosterone levels: in males"}, "[6]": {"test_system": "patients alive at Day 3 with Killip class >I", "conditions": "patients randomized to lisinopril; ACE-I treatment stopped at 42 days, more than 50% continued long-term; cited from earlier work"}, "animal models": {"test_system": "animal models", "conditions": "cited from earlier work"}, "hypertensive-rat cohort": {"test_system": "hypertensive-rat cohort", "conditions": "spironolactone subcutaneously; cited from earlier work"}, "[7]": {"test_system": "patients afflicted with congestive heart failure", "conditions": "coadministered with an ACE inhibitor; cited from earlier work"}, "[8]": {"test_system": "patients with severe HF (NYHA Class III or IV)", "conditions": "cited from earlier work"}, "hypertensive patients": {"test_system": "hypertensive patients", "conditions": "despite continued ACE inhibition; cited from earlier work"}, "[9]": {"test_system": "patients with severe HF (NYHA Class IV)", "conditions": "enalapril plus diuretics compared to placebo plus diuretics; cited from earlier work"}, "[10]": {"conditions": "at lower temperatures (below the enantiotropic transition temperature)"}, "[11]": {"test_system": "patients with LV dysfunction 2 to 6 days following MI", "conditions": "cited from earlier work"}}, "note": "Read-outs that look alike come from different tables or passages of the source.", "data": [{"smiles": "C[C@H](CSC(=O)c1ccccc1)C(=O)N1C[C@@H](Sc2ccccc2)C[C@H]1C(=O)O", "note": "[zofenopril]", "values": [{"measurement": "plasma aldosterone", "setting": "[1]", "value": "A similar effect"}]}, {"smiles": "CCOC(=O)[C@H](CCc1ccccc1)N[C@@H](C)C(=O)N1[C@H](C(=O)O)C[C@@H]2CCC[C@@H]21", "note": "[ramipril]", "values": [{"measurement": "first-year mortality rate in the active (ACE-I) arm", "setting": "[2]; AIRE", "value": 16, "unit": "%"}, {"measurement": "risk reduction in all cause mortality compared to placebo", "setting": "[2]; AIRE", "value": 27, "unit": "%"}, {"measurement": "reduction in the risk of developing severe resistant HF compared to placebo", "setting": "[2]; AIRE, p=0.017", "value": 23, "unit": "%"}, {"measurement": "risk reduction in all cause mortality compared to placebo", "setting": "[2]; AIREX long-term (three year) follow-up", "value": 36, "unit": "%"}, {"measurement": "ventricular dilatation and decline of systolic dysfunction", "setting": "[3]", "value": "prevented ventricular dilatation and further decline of systolic dysfunction"}]}, {"smiles": "COC(=O)[C@@H]1CC2=CC(=O)CC[C@]2(C)[C@@]23O[C@@H]2C[C@@]2(C)[C@@H](CC[C@@]24CCC(=O)O4)[C@H]13", "note": "[eplerenone, Pregn-4-ene-7,21-dicarboxylic acid, 9,11-epoxy-17-hydroxy-3-oxo-, γ-lactone, methyl ester, (7^α, 11^α, 17^α)-]", "values": [{"measurement": "solubility", "setting": "[4]", "value": "5 to 200", "unit": "mg/mL"}, {"measurement": "urinary aldosterone excretion, increase from baseline", "setting": "[5]; 25 mg eplerenone QD, P>0.05", "value": "did not reach statistical significance"}, {"measurement": "plasma renin activity (PRA)", "setting": "[5]", "value": "significantly elevated"}, {"measurement": "reduction in BNP", "setting": "[5]; eplerenone at 25 mg, all patients", "value": "highly significant"}, {"measurement": "reduction in BNP", "setting": "[5]; eplerenone at 100 mg, all patients", "value": "highly significant"}, {"measurement": "urinary aldosterone excretion, increase from baseline", "setting": "[5]; eplerenone dose of 50 mg", "value": "Greater increases"}, {"measurement": "urinary aldosterone excretion, increase from baseline", "setting": "[5]; eplerenone dose of 100 mg", "value": "Greater increases"}, {"measurement": "testosterone levels", "setting": "[5]", "value": "lack of effect"}, {"measurement": "reduction in BNP", "setting": "[5]; patients with high baseline BNP levels", "value": "even greater"}]}, {"smiles": "NCCCC[C@H](N[C@@H](CCc1ccccc1)C(=O)O)C(=O)N1CCC[C@H]1C(=O)O", "note": "[lisinopril]", "values": [{"measurement": "first-year mortality", "setting": "[6]", "value": 22, "unit": "%"}]}, {"smiles": "CC(=O)S[C@@H]1CC2=CC(=O)CC[C@]2(C)[C@H]2CC[C@@]3(C)[C@@H](CC[C@@]34CCC(=O)O4)[C@H]12", "note": "[spironolactone]", "values": [{"measurement": "ventricular dilatation and decline of systolic dysfunction", "setting": "[3]", "value": "prevented ventricular dilatation and further decline of systolic dysfunction"}, {"measurement": "myocardial fibrosis", "setting": "animal models", "value": "prevents myocardial fibrosis"}, {"measurement": "myocardial fibrosis", "setting": "animal models; listed as Spironolactone", "value": "prevent fibrosis in animal models irrespective of the development of left ventricular hypertrophy and the presence of hypertension"}, {"measurement": "fibrosis", "setting": "hypertensive-rat cohort", "value": "prevent fibrosis"}, {"measurement": "patients in whom highly effective", "setting": "[7]", "value": "13 of 16"}, {"measurement": "reduction in mortality compared to placebo", "setting": "[8]; as restated in the sample size discussion", "value": "> 30", "unit": "%"}, {"measurement": "risk reduction for all cause mortality", "setting": "[8]; spironolactone 25 mg daily added to standard therapy (ACE-I and loop diuretic, with or without digoxin) vs standard therapy plus placebo, p<0.001", "value": 30, "unit": "%"}, {"measurement": "lower frequency of hospitalization for worsening HF than placebo patients", "setting": "[8]; spironolactone 25 mg daily added to standard therapy", "value": 35, "unit": "%"}, {"measurement": "median increase in serum potassium concentration compared to placebo", "setting": "[8]; spironolactone added to standard therapy", "value": "statistically but not clinically significant"}, {"measurement": "plasma renin activity (PRA)", "setting": "[5]", "value": "significantly elevated"}, {"measurement": "testosterone levels", "setting": "[5]", "value": "significant increase"}]}, {"smiles": "C[C@H](CS)C(=O)N1CCC[C@H]1C(=O)O", "note": "[captopril]", "values": [{"measurement": "plasma aldosterone", "setting": "hypertensive patients", "value": "gradual return of plasma aldosterone to baseline levels"}]}, {"smiles": "CCOC(=O)[C@H](CCc1ccccc1)N[C@@H](C)C(=O)N1CCC[C@H]1C(=O)O", "note": "[enalapril]", "values": [{"measurement": "mortality at one year reduced", "setting": "[9]", "value": 31, "unit": "%"}]}, {"smiles": "COC(=O)[C@@H]1CC2=CC(=O)CC[C@]2(C)[C@@]23O[C@@H]2C[C@@]2(C)[C@@H](CC[C@@]24CCC(=O)O4)[C@H]13", "note": "[Form L]", "values": [{"measurement": "physical stability relative to Form H", "setting": "[10]", "value": "greater physical stability"}]}, {"smiles": "CCOC(=O)[C@H](CCc1ccccc1)N[C@@H](C)C(=O)N1[C@H](C(=O)O)C[C@H]2CCCC[C@@H]21", "note": "[trandolapril]", "values": [{"measurement": "first-year mortality rate in the active (ACE-I) arm", "setting": "[11]; TRACE", "value": 23, "unit": "%"}, {"measurement": "relative reduction in the risk of death compared to placebo", "setting": "[11]; p=0.001", "value": 18, "unit": "%"}, {"measurement": "reduction in the risk of progression to severe HF compared to placebo", "setting": "[11]; p=0.003", "value": 29, "unit": "%"}]}]}
